One may read the IC50 as the concentration that gives 50% inhibition.

Calls of active or inactive are those of the source.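 How the source made its calls: active means in confirmatory dose-response testing, peak deubiquitinase inhibition of 30% or more; inactive means the rest.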

This assay deals with Ubiquitin carboxyl-terminal hydrolase 28 (Homo sapiens) (UniProt Q96RU2). The assay is described as follows: Ubiquitin-specific peptidase 28 DUB inhibitors, biochemical concentration-dependence assay, validation of primary screening hits (AID 1645866). Conditions: purified USP28, ubiquitin-rhodamine fluorescence, 30 min.
Ubiquitin carboxyl-terminal hydrolase 28 (Homo sapiens), sequence (Q96RU2 whole entry, looked up): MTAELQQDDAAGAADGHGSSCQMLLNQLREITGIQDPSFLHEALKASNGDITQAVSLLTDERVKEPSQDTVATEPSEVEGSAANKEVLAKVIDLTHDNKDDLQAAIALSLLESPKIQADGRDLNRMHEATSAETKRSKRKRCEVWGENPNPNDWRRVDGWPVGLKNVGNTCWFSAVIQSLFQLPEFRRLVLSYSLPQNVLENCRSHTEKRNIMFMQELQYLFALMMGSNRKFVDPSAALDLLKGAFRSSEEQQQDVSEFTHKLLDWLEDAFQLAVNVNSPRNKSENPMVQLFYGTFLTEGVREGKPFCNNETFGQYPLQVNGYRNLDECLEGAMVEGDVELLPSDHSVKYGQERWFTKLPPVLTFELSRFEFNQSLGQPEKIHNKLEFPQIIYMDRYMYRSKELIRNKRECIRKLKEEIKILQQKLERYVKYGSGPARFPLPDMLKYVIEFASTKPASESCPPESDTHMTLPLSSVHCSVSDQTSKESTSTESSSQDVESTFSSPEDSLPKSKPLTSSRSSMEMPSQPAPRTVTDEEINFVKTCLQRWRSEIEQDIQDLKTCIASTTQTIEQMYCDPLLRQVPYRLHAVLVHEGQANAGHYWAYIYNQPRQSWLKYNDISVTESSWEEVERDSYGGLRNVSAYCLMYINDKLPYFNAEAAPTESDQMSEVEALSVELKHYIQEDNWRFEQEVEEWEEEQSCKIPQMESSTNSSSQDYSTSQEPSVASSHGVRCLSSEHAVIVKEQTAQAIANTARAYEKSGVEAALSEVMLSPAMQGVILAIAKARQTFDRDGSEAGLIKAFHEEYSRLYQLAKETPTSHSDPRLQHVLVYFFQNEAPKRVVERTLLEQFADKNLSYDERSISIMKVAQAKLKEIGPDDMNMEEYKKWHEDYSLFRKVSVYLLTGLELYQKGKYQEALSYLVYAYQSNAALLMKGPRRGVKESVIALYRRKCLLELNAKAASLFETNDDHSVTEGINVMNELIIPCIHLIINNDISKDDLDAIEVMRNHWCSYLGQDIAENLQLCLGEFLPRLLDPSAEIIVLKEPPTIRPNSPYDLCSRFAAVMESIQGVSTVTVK
For the compound `Cc1cccc(C(=O)Nc2ccc3c(c2)nc(CSc2nccc(C)n2)n3C)c1`, the IC50 is less than 0.05 µM.

For the compound `Fc1ccc(Nc2nc(Nc3cccc(F)c3)nc3nccnc23)cc1`, the IC50 was > 50 µM (inactive). As for `COc1ccc(O)c(C(=O)OCc2cc(=O)oc3ccc4ccccc4c23)c1`, the figure is > 50 µM (inactive). `O=C(Nc1cccc(C(F)(F)F)c1)c1cc2c(s1)-c1ccccc1OC2`: the IC50 is 6.78 µM. On to `CCc1ccc(-n2c(=O)c3ccccc3n(CC(=O)NCCC3=CCCCC3)c2=O)cc1`, for which the IC50 was 14.5 µM. As for `CCOc1ccc(N2C(=O)c3ccccc3C2C(=O)NCc2ccccc2OC)cc1` (stereo not given), the figure is 29.8 µM; as for `COc1cccc2c1NC(=O)C21CCN(C(=O)Nc2cccc3ccccc23)CC1`, > 50 µM (inactive); as for `CC1(O)CC(=O)c2c(cc3cc(O)cc(O)c3c2O)C1` (stereo not given), 0.0671 µM. The figure for `Fc1ccc(CN2CCc3nc4cccnc4cc3C2)cc1` is > 50 µM (inactive). As for `O=C(Nc1ccccc1)c1nc2c(s1)CCN(C(=O)c1ccccc1)CC2`, the figure is > 50 µM (inactive). For the compound `FC(F)(F)c1cccc(N2CCN(c3nc4ccccc4n4nnnc34)CC2)c1`, the IC50 is > 50 µM (inactive). The figure for `CCc1ccc(-c2nc(SCC(=O)Nc3ccc4[nH]c(=O)[nH]c4c3)n[nH]2)cc1` is 23.5 µM; for `CCOc1ccccc1NC(=O)COC(=O)C(c1ccccc1)c1ccccc1` it is > 50 µM (inactive); for `O=C(NCc1ccc2c(c1)OCO2)c1ccc(C2SCC(=O)N2Cc2ccco2)cc1` (stereo not given) it is > 50 µM (inactive). The figure for `Cc1cc(O)c2c3c(c(O)c4c(c13)O[C@@H](C)C4(C)C)C(=O)C2=O` is 23.5 µM; for `O=C(CCSc1ccc(Cl)cc1)c1cccs1` it is 19.4 µM; for `Cc1ccc(NC(=O)c2ccn(COc3ccc(F)cc3)n2)nc1` it is 33.3 µM. As for `COc1ccc(C(=O)C2CC(=O)Nc3c2c(C)nn3-c2ccc(Br)cc2)cc1` (stereo not given), the figure is 20.1 µM. For `COc1cccc(-c2cc(C(=O)N3CCN(c4ccc(N5CCOCC5)nn4)CC3)[nH]n2)c1`, the IC50 was 3.83 µM. The figure for `O=C(C1CCCN(S(=O)(=O)N2CCCCCC2)C1)N1CCN(c2ccccc2)CC1` (stereo not given) is > 50 µM (inactive). In the case of `O=C(COc1cccc(-n2cnnn2)c1)Nc1ccc2c(c1)OCCO2`, the IC50 is 31.4 µM. The figure for `CC1(C)Cc2c(sc3nc(Cc4ccccc4)nc(SCC(=O)Nc4ccccc4)c23)CO1` is 2.4 µM; for `COc1ccc2[nH]c3c(c2c1)CCN1C(=O)N(c2ccccc2C(=O)NCc2ccccc2)C(=O)[C@]31C` it is 46.4 µM. The figure for `O=C(Cn1c(=O)n(Cc2ccco2)c(=O)c2ccc(C(=O)NC3CCCC3)cc21)NCc1ccco1` is 27.5 µM. With `O=C(COc1ncnc2ccccc12)Nc1ccc2c(c1)OC1(CCCC1)O2`, the IC50 was 24 µM. Turning to `O=C(O)C1CCN(Cc2c(-c3ccco3)nc3ccc(Cl)cn23)CC1`, the IC50 was > 50 µM (inactive). The figure for `CCCCCn1c(Sc2ccc(C)cc2)nc2c1c(=O)[nH]c(=O)n2C` is 14.5 µM; for `CCC(=O)Nc1cccnc1-c1ccc(C(=O)Nc2cccc(OC)c2)cc1` it is 14.5 µM. Turning to `O=C(CN1C(=O)C2CCCC2=Nc2ccccc21)Nc1ccc(F)cc1F` (stereo not given), the IC50 is 26.2 µM. Take `O=C1/C(=C/c2cn(-c3ccccc3)nc2-c2ccc3c(c2)OCCO3)Cc2ccccc21`: the IC50 was > 50 µM (inactive). `CC(C)c1nc2sc3c(NCc4ccco4)ncnc3c2c2c1CCC2`: the IC50 is 3.08 µM. The figure for `Cc1cc(=O)n(CC(=O)Nc2ccccc2C)c(Nc2ccc(F)cc2)n1` is 19.5 µM. The figure for `CC1CCCCN1c1nc(F)c2c(c1F)S(=O)(=O)CCN2Cc1ccccc1` (stereo not given) is > 50 µM (inactive); for `O=C(Nc1ccc(F)cc1F)NC1Cc2ccccc2C1` it is 44.1 µM; for `O=C(Nc1nc2ccccc2s1)c1ccc2c(c1)C(=O)N(Cc1cccnc1)C2=O` it is 1.93 µM. The figure for `COc1ccc(-c2cc3c(=O)n(CC(=O)Nc4ccccc4F)ccn3n2)cc1OC` is 33 µM; for `CC(C)N1CC2CN(C(=O)c3ccccc3)CCN2Cc2ccccc21` (stereo not given) it is > 50 µM (inactive). Consider `Cc1ccc(CNC(=O)c2cccc(N3C(=O)N4CCc5c([nH]c6ccccc56)[C@@]4(C)C3=O)c2)cc1`, for which the IC50 is 44 µM. As for `O=[N+]([O-])c1cccc(CSc2nnc(/C=C/c3ccccc3)o2)c1`, the figure is > 50 µM (inactive).

Consider `COCCn1c(=O)[nH]c2cc(C(=O)NCCNc3ccc([N+](=O)[O-])cc3C#N)ccc2c1=O`, for which the IC50 was 2.06 µM. Consider `COc1cccc(-n2c(CNCc3cccnc3)nc3ccc([N+](=O)[O-])cc3c2=O)c1`, for which the IC50 is 20.2 µM. As for `O=C1C[C@@H]2O[C@H](CNC(=O)[C@@H]3CN(CCN3C(=O)C3CCOCC3)C(=O)[C@@H]3C[C@@H](CN3Cc3ccc(F)c(F)c3)N1)[C@@H](O)[C@H]2O`, the figure is > 50 µM (inactive); as for `CN=C(N)NCCC/C=C/CCCC(C)CC(C)C1OC(=O)/C=C/C(C)C(O)CC(O)C(C)C(O)CCC(C)C(O)CC2(O)OC(CC(OC(=O)CC(=O)O)CC(O)CC(O)C(C)C(O)/C=C/C1C)CC(O)C2O` (stereo not given), 19.8 µM.

For `CN1C(=O)c2cc(NC(=O)c3ccccc3Cl)ccc2Oc2ccccc21`, the IC50 was 1.25 µM. The figure for `COC(=O)c1ccc(C(=O)Nc2cc3ccccc3cc2NC(=O)c2ccc(C(=O)OC)cc2)cc1` is 2.78 µM; for `COc1ccc(-c2nc(C)c(C(=O)NCc3ccc(S(N)(=O)=O)cc3)s2)cc1` it is > 50 µM (inactive).

Turning to `COc1ccc(N(CC(=O)Nc2cccc(F)c2)S(=O)(=O)c2ccc(OC)c(OC)c2)cc1`, the IC50 was 18.9 µM. As for `O=[N+]([O-])c1ccc2c(c1)nc1n2CCN(Cc2ccco2)C1`, the figure is > 50 µM (inactive). The figure for `CCc1ccc(NC(=O)Cc2nnc(-c3ccc4ncccc4c3)o2)cc1` is 25.9 µM; for `CCn1cc2c(n1)c(=O)n(Cc1ccccc1)c(=O)n2CC(=O)Nc1ccc(OC)cc1` it is 10.5 µM.

In the case of `O=C(c1ccco1)N1CCN=C1SCc1ccccc1F`, the IC50 is 9.78 µM. The figure for `CNC(=O)c1cc2nc(N(C)C)n(-c3ccc(F)cc3)c2s1` is 11.6 µM; for `O=C1N(Cc2ccc(F)cc2)CCN1c1ccc2c(c1)CCC2` it is 40.8 µM; for `O=C(Nc1ccc2c(c1)OCCO2)Nc1ccc2nc3n(c(=O)c2c1)CCCC3` it is 15.1 µM.

Consider `CC(C)N1CC2CN(Cc3ccc(Cl)cc3)CCN2Cc2ccccc21` (stereo not given), for which the IC50 is > 50 µM (inactive).

In the case of `O=C(/C=C/c1ccc(F)cc1)Nc1ccc2c(c1)OCCO2`, the IC50 was 2.47 µM. The figure for `O=C(Cn1cccc1-c1nc(-c2ccccc2)cs1)N1CCOCC1` is 18.3 µM. Regarding `COc1ccc2nc(NC(=O)C(CC(C)C)NS(=O)(=O)c3ccc4c(c3)CCN4C(C)=O)sc2c1` (stereo not given), the IC50 is 26 µM. Take `CC(C)NS(=O)(=O)c1ccc(OCC(=O)N2CCC(Cc3ccccc3)CC2)cc1`: the IC50 was 5.5 µM. Consider `CC(C)(C)C(=O)[C@@H]1[C@@H](C(=O)c2ccc3c(c2)OCO3)[C@@]2(C(=O)Nc3ccccc32)[C@H]2c3ccccc3C=CN12`, for which the IC50 is 44.5 µM.

The values are drawn from PubChem BioAssay AID1645866 (Buhrlage Lab, Dana-Farber Cancer Institute and Novartis …, 2021).
